Test results reported in ChEMBL document CHEMBL1141884 (Bioorg Med Chem Lett, 2005).

B1: Acetylcholinesterase (Homo sapiens), P22303 (protein)
chain: MRPPQCLLHTPSLASPLLLLLLWLLGGGVGAEGREDAELLVTVRGGRLRGIRLKTPGGPVSAFLGIPFAEPPMGPRRFLPPEPKQPWSGVVDATTFQSVCYQYVDTLYPGFEGTEMWNPNRELSEDCLYLNVWTPYPRPTSPTPVLVWIYGGGFYSGASSLDVYDGRFLVQAERTVLVSMNYRVGAFGFLALPGSREAPGNVGLLDQRLALQWVQENVAAFGGDPTSVTLFGESAGAASVGMHLLSPPSRGLFHRAVLQSGAPNGPWATVGMGEARRRATQLAHLVGCPPGGTGGNDTELVACLRTRPAQVLVNHEWHVLPQESVFRFSFVPVVDGDFLSDTPEALINAGDFHGLQVLVGVVKDEGSYFLVYGAPGFSKDNESLISRAEFLAGVRVGVPQVSDLAAEAVVLHYTDWLHPEDPARLREALSDVVGDHNVVCPVAQLAGRLAAQGARVYAYVFEHRASTLSWPLWMGVPHGYEIEFIFGIPLDPSRNYTAEEKIFAQRLMRYWANFARTGDPNEPRDPKAPQWPPYTAGAQQYVSLDLRPLEVRRGLRAQACAFWNRFLPKLLSATDTLDEAERQWKAEFHRWSSYMVHWKNQFDHYSKQDRCSDL

Assays:
Cholinesterase = Cholinesterase (Homo sapiens, UniProt P06276)
Cholinesterase, sequence (P06276 whole entry): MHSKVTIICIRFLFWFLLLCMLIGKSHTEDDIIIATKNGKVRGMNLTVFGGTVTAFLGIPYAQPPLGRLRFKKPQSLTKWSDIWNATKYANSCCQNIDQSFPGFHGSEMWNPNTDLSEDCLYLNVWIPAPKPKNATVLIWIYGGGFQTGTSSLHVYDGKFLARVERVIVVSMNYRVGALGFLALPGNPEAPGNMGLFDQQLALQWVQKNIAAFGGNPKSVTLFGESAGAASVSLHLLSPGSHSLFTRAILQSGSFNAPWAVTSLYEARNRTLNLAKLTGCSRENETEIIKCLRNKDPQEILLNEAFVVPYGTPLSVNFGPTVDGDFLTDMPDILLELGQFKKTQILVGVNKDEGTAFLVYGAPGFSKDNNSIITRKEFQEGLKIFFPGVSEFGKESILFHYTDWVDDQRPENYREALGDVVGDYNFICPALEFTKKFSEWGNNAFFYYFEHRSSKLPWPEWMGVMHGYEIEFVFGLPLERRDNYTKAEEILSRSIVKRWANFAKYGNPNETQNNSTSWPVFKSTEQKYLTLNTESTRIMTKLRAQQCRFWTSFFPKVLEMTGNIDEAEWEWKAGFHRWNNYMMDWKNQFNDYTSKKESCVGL
Description: Inhibitory concentration against Butyrylcholinesterase activity

Acetylcholinesterase [1] = target: T1, Acetylcholinesterase (Homo sapiens, UniProt P22303); assay: Inhibitory concentration against Acetylcholinesterase activity
Acetylcholinesterase [2] = target: T1, Acetylcholinesterase; assay: Binding affinity for Acetylcholinesterase
[3] = substrate: COc1ccc(-c2cc3c(c(=O)o2)C[C@@]2(O)[C@@]4(C)CCC(=O)OC(C)(C)[C@@]4(O)CC[C@@]2(C)O3)cc1; assay: Michaelis-Menten constant for affinity against Acetylcholinesterase

Molecule | IC50 (Cholinesterase) [nM] | IC50 (Acetylcholinesterase [1]) [nM] | Ki (Acetylcholinesterase [2]) [nM] | Km [3] [µM]
COc1ccc(-c2cc3c(c(=O)o2)C[C@@]2(O)[C@@]4(C)CCC(=O)C(C)(C)[C@@]4(O)CC[C@@]2(C)O3)cc1 | > 200000 | 60 |  | 
COc1ccc(-c2cc3c(c(=O)o2)C[C@@]2(O)[C@@]4(C)CCC(=O)OC(C)(C)[C@@]4(O)CC[C@@]2(C)O3)cc1 | > 500000 |  | 2300 | 
COc1ccc(-c2cc3c(c(=O)o2)C[C@@]2(O)[C@@]4(C)C(=O)[C@@]5(OC)C(=O)O[C@]4(CC[C@@]2(C)O3)C5(C)C)cc1 [TERREULACTONE A] | > 200000 | 230 |  | 
COC1=CC(=O)[C@]2(C)[C@]3(O)Cc4c(cc(-c5cc(OC)c(OC)c(OC)c5)oc4=O)O[C@]3(C)CC[C@]2(O)C1(C)C | > 200000 | 420 |  | 
COc1ccc(-c2cc3c(c(=O)o2)C[C@@]2(O)[C@@]4(C)C=CC(=O)C(C)(C)[C@@]4(O)CC[C@@]2(C)O3)cc1 | > 200000 | 90 |  | 
B1 |  |  |  | 20
